The text below walks through data of ChEMBL document CHEMBL1201862, “PubChem BioAssay data set” (2004).

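All cell lines were grown in 96-well plates and treated with compound for 48 hours. Here, GI50 denotes the concentration required for 50% inhibition of growth.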 Calls of active or inactive are those of the source. No stated cut-off is given here; in the data, active = GI50 up to about 1.1 µM and inactive = higher.

What all share (assay): NCI-60 cell line screen, 48 h
In experiment [1] the test system is A549.
Experiment [2] concerns BT-549.
Experiment [3] deals with CCRF-CEM.
Experiment [4] concerns EKVX.
The subject of experiment [5] is HCT-116.
Experiment [6] concerns HL-60.
For experiment [7], the system named is HOP-62.
In experiment [8] the test system is KM12.
In experiment [9] the test system is Malme-3M.
For experiment [10], the system named is NCI-H226.
The subject of experiment [11] is NCI-H522.
In experiment [12] the test system is OVCAR-3.
Experiment [13] deals with RXF 393.
For experiment [14], the system named is SF-268.
For experiment [15], the system named is SN12C.
Experiment [16] has as its system SNB-19.
The subject of experiment [17] is SR.
Experiment [18] relates to T47D.
Experiment [19] relates to TK-10.
The test system of experiment [20] is UO-31.

Take `CN(C)CCC(=O)N1C/C(=C/c2ccccc2)C(=O)/C(=C\c2ccccc2)C1`: the GI50 is 4.7 µM (inactive) in experiment [1]; 0.883 µM (active) in experiment [2]; 0.191 µM (active) in experiment [3]; 3.78 µM (inactive) in experiment [4]; 0.447 µM (active) in [5]; 0.356 µM (active) in experiment [6]. The GI50 in [7] is 7.31 µM (inactive); in experiment [8], 0.55 µM (active); in experiment [9], 2.16 µM (inactive); in experiment [10], 5.55 µM (inactive); in experiment [11], 0.301 µM (active); in experiment [12], 2.59 µM (inactive). The GI50 in [13] is 2.11 µM (inactive); in [14] it was 2.74 µM (inactive); in [15], 1.25 µM (inactive); in [16], 2.48 µM (inactive); in experiment [17], 0.386 µM (active); in experiment [18], 4.82 µM (inactive). For the same compound, the results for the GI50 in [19] and in experiment [20] were 8.15 µM (inactive) and 2.36 µM (inactive), respectively.
For `COC(=O)Cc1cc(O)c2c(c1O)C(=O)c1ccccc1C2=O`, the GI50 in experiment [1] was > 100 µM (inactive); in [2], > 62.4 µM (inactive); in experiment [3] it was > 52.6 µM (inactive); in experiment [4] it was > 94.2 µM (inactive); in experiment [5], > 71 µM (inactive); in [6], > 94.6 µM (inactive). Moreover, the GI50 in experiment [7] is 24.3 µM (inactive); in experiment [8] it was > 100 µM (inactive); in experiment [9] it was > 74 µM (inactive); in experiment [10] it was 92.3 µM (inactive); in experiment [11] it was > 100 µM (inactive); in experiment [12], > 71.9 µM (inactive). The GI50 in experiment [13] was 30.3 µM (inactive); in experiment [14], 51.1 µM (inactive); in [15], 99.5 µM (inactive); in [16], 38.5 µM (inactive); in [17] it was > 100 µM (inactive); in [18], > 100 µM (inactive). Moreover, the results for the GI50 in experiment [19] and in [20] were 39.4 µM (inactive) and > 100 µM (inactive), respectively.
Turning to `Cc1ccc(-c2n[nH]c(=O)n2/N=C\c2ccc([N+](=O)[O-])cc2)cc1`, the GI50 is > 100 µM (inactive) in experiment [1]; 54.1 µM (inactive) in [2]; > 32.1 µM (inactive) in experiment [3]; > 100 µM (inactive) in experiment [4]; 72.6 µM (inactive) in experiment [5]; > 35.7 µM (inactive) in experiment [6]. Besides, the GI50 in experiment [7] was 52.4 µM (inactive); in experiment [8], > 100 µM (inactive); in experiment [9] it was > 100 µM (inactive); in experiment [10], > 100 µM (inactive); in experiment [11] it was > 100 µM (inactive); in [12] it was > 100 µM (inactive). Besides, the GI50 was > 73.8 µM (inactive) in experiment [13]; > 100 µM (inactive) in experiment [14]; > 100 µM (inactive) in experiment [15]; > 100 µM (inactive) in experiment [16]; 31.8 µM (inactive) in experiment [17]; > 91.8 µM (inactive) in experiment [18]. Besides, the GI50 in [19] is > 100 µM (inactive); in experiment [20], > 93.3 µM (inactive).
On to `Cc1cc(N(CCC#N)CCC#N)ccc1C(/N=N/c1ccccc1)=N\NC(=O)c1ccccc1`, for which the GI50 in [1] is 38.8 µM (inactive); in experiment [2], 24 µM (inactive); in experiment [3], 18.6 µM (inactive); in experiment [4] it was 39.4 µM (inactive); in experiment [5] it was 20.6 µM (inactive); in experiment [6], 35.7 µM (inactive). The GI50 in experiment [7] is 55.8 µM (inactive); in experiment [8] it was 18.1 µM (inactive); in experiment [9], 34 µM (inactive); in experiment [10] it was 43.4 µM (inactive); in [11], 16.3 µM (inactive); in [12] it was 30.3 µM (inactive). The GI50 is 58.1 µM (inactive) in [13]; 42.8 µM (inactive) in experiment [14]; 43.9 µM (inactive) in experiment [15]; 40.4 µM (inactive) in [16]; 6.81 µM (inactive) in experiment [17]; 5.2 µM (inactive) in experiment [18]. In addition, the GI50 in experiment [19] was 7.66 µM (inactive); in [20] it was 17.9 µM (inactive).
As to `CC(C)=CCC/C(=C\CC/C(=C\CCc1ccoc1)C(=O)O)C(=O)O`, the GI50 in [1] was > 100 µM (inactive); in [2], > 100 µM (inactive); in experiment [3], > 100 µM (inactive); in [4], > 100 µM (inactive); in experiment [5], > 100 µM (inactive); in experiment [6], 11.7 µM (inactive). The GI50 in experiment [7], in [8], in experiment [9], in experiment [10], in experiment [11] and in experiment [12] was > 100 µM (inactive) in each case. The GI50 is > 100 µM (inactive) in experiment [13]; 92.3 µM (inactive) in experiment [14]; > 100 µM (inactive) in [15]; > 100 µM (inactive) in experiment [16]; > 100 µM (inactive) in experiment [17]; > 100 µM (inactive) in [18]. Besides, the GI50 in [19] and in experiment [20] was > 100 µM (inactive) throughout.
In the case of `O=C(O)C1Cc2c([nH]c3ccccc23)C(CCCCO)N1` (stereo not given), the GI50 in [1], in experiment [2], in [3], in [4], in [5] and in experiment [6] was > 100 µM (inactive) in each case. The GI50 in experiment [7], in [8], in experiment [9], in [10], in experiment [11] and in experiment [12] was > 100 µM (inactive) each time. Moreover, the GI50 in [13], in experiment [14], in experiment [15], in [16], in [17] and in experiment [18] was > 100 µM (inactive) in each case. Moreover, the GI50 in [19] and in experiment [20] was > 100 µM (inactive) throughout.
For `COc1cc2c(c(OC)c1OC)-c1ccc(OC)c(=O)cc1C(NC(=O)c1ccc(N=[N+]=[N-])cc1)CC2` (stereo not given), the GI50 in experiment [1] was 0.0408 µM (active); in [2], 0.0507 µM (active); in experiment [3] it was 0.0316 µM (active); in experiment [4] it was 0.132 µM (active); in experiment [5], 0.0334 µM (active); in experiment [6] it was 0.0272 µM (active). The GI50 in experiment [7] is 0.0413 µM (active); in experiment [8], 0.0234 µM (active); in experiment [9], 0.608 µM (active); in [10], 0.451 µM (active); in experiment [11], 0.0175 µM (active); in experiment [12], 0.0255 µM (active). Moreover, the GI50 is 0.0185 µM (active) in experiment [13]; 0.0557 µM (active) in [14]; 0.0514 µM (active) in experiment [15]; 0.0767 µM (active) in experiment [16]; 0.0435 µM (active) in [17]; > 100 µM (inactive) in experiment [18]. Further, the GI50 is 13 µM (inactive) in experiment [19] and 9.08 µM (inactive) in [20].
As for `O=C(O)c1ccc(C(=O)c2ccccc2C(=O)O)cc1C(=O)O`, the GI50 in [1] is > 100 µM (inactive); in experiment [2], > 100 µM (inactive); in experiment [3], > 26.4 µM (inactive); in [4], > 100 µM (inactive); in experiment [5] it was > 100 µM (inactive); in experiment [6] it was > 76.9 µM (inactive). Besides, the GI50 in experiment [7], in experiment [8], in experiment [9], in experiment [10], in experiment [11] and in experiment [12] was > 100 µM (inactive) in each case. Further, the GI50 in [13], in experiment [14], in experiment [15], in experiment [16], in experiment [17] and in experiment [18] was > 100 µM (inactive) each time. The GI50 in experiment [19] and in experiment [20] was > 100 µM (inactive) throughout.
Take `CCC1(CC)C(=O)N(C(=O)c2ccccc2)N(C(=O)c2ccc(Cl)cc2)C1=O`: the GI50 was > 75 µM (inactive) in experiment [1]; > 75 µM (inactive) in experiment [2]; 12.7 µM (inactive) in [3]; > 75 µM (inactive) in experiment [4]; 43.9 µM (inactive) in experiment [5]; 22 µM (inactive) in experiment [6]. The GI50 in [7] was > 75 µM (inactive); in [8], > 75 µM (inactive); in experiment [9] it was > 75 µM (inactive); in experiment [10], > 75 µM (inactive); in [11] it was 25.4 µM (inactive); in experiment [12], > 75 µM (inactive). Moreover, the GI50 in experiment [13] was > 75 µM (inactive); in [14] it was > 75 µM (inactive); in [15] it was > 75 µM (inactive); in experiment [16], > 75 µM (inactive); in experiment [17], 16.5 µM (inactive); in experiment [18], > 75 µM (inactive). Besides, the GI50 in [19] and in experiment [20] was > 75 µM (inactive) throughout.
As for `Oc1cccc2c(Br)ccnc12`, the GI50 in experiment [1] is 4.34 µM (inactive); in [2], 8.93 µM (inactive); in [3] it was 0.38 µM (active); in [4], 2.88 µM (inactive); in [5], 1.4 µM (inactive); in [6], 0.181 µM (active). For the same compound, the GI50 in [7] is 8.73 µM (inactive); in experiment [8], 5.19 µM (inactive); in experiment [9], 8.38 µM (inactive); in [10], 7.1 µM (inactive); in experiment [11], 3.16 µM (inactive); in experiment [12] it was 0.697 µM (active). The GI50 was 4.65 µM (inactive) in [13]; 0.767 µM (active) in [14]; 3.62 µM (inactive) in [15]; 7.71 µM (inactive) in [16]; 0.378 µM (active) in [17]; 3.17 µM (inactive) in [18]. Also, the results for the GI50 in experiment [19] and in [20] were 32.7 µM (inactive) and 2.84 µM (inactive), respectively.
